From patent US6365166B2, “Gel formulations for topical drug delivery” (priority 1996, dated 2002)
Where two headings read alike, the source gives them in different places.

Columns and labels:
[1] = Solubility of the drug in gel formulations of the invention; format: physicochemical
[2] = test system: interferon and tumor necrosis factor; settings: mice, oral administration; cited from earlier work
[3] = test system: interferon and tumor necrosis factor; settings: rats, oral administration; cited from earlier work
[4] = test system: human peripheral blood mononuclear cells; settings: cultures of human peripheral blood mononuclear cells; cited from earlier work
herpes simplex virus = settings: subcutaneously, dermally or intravaginally 24 hours before infection; cited from earlier work

Compound: CCOCc1nc2c(N)nc3ccccc3c2n1CC(C)(C)O [4-amino-2-ethoxymethyl-α,α-dimethyl-1H-imidazo[4,5-c]quinoline-1-ethanol]
- solubility in formulations of the invention [1]: sufficiently soluble
- solubility in formulations of the invention ([1]; listed as 4-Amino-2-ethoxymethyl-α,α-dimethyl-1H-imidazo[4,5-c]quinoline-1-ethanol): substantial solubility
- induction of interferon and tumor necrosis factor [2]: induce interferon and tumor necrosis factor
- induction of interferon and tumor necrosis factor [3]: induce interferon and tumor necrosis factor
- cytokine induction [4]: induce interferon-α, tumor necrosis factor, interleukin-1α, interleukin-1β, interleukin-6 and interleukin-8
- antiviral activity (herpes simplex virus): antiviral activity
